Series [1] relates to A549 cells. Nature of the series: MTT antiproliferative assay, A549. The following applies: read-out: In vitro antiproliferative activity IC50, A549. It is filed as cell-based, human. The procedure: (§1) IC50 values of the test compounds against A549, MCF-7, Hela and HepG2 cells were obtained from State Key Laboratory of Pharmaceutical Biotechnology, Nanjing University, and were determined by a standard (MTT)-based colorimetric assay (Beyotime Inst. Biotech., Nanjing, China). Tumor cell lines were grown to mid-log phase and then diluted to […] making sure they were seeded in 96-well plates (Philas, Nanjing, China) at a density of 5 × 10^3–1 × 10^4 cells per well. The outer wells containing 1 × PBS solution of the plate are not used for the assay to avoid the possibility of edge effects. The plate was incubated at 37 °C in a 5% CO2 incubator in DMEM containing 10% fetal bovine serum (FBS, Gibco, Waltham, MA, USA) for 24 h. Then, we added a 100-μL series concentration of drug-containing medium into the wells to maintain the final concentration of drug as 100, 10, 1 and 0.1 μmol/L. After 12 h, cell survival was determined by the addition of a MTT (3-(4,5-dimethylthiazol-2-yl)-2,5-diphenyl trtrazolium bromide) solution (10 μL of 5 mg/mL MTT in 1 × PBS). We waited for 4 h proliferation, discarded the medium and quickly added 150 μL DMSO per well, shaking the plates well for 10 min to ensure complete dissolution. Optical absorbance was measured at 570 nm on a microplate reader (Bio-Rad, Hercules, CA, USA). Survival ratios are expressed in percentages with respect to untreated cells. The experiments were replicated at least three times to verify the methodology reproducibility when using the above-mentioned conditions.
For orientation: Tetrazolium assays rely on reduction of a dye to a coloured formazan, in cell work by metabolically active cells.

In series [2] the test system is MCF-7 cells. Nature of the series: MTT antiproliferative assay, MCF-7. It is filed as cell-based, human. As for the experimental part:
as §1

Series [3] relates to HeLa cells. Nature of the series: MTT antiproliferative assay, HeLa. The following applies: read-out: In vitro antiproliferative activity IC50, HeLa. Format: cell-based, human. The procedure: as §1
The subject of series [4] is HepG2 cells. Nature of the series: MTT antiproliferative assay, HepG2. Format: cell-based, human. The conditions noted are these: read-out: In vitro antiproliferative activity IC50, HepG2. As for the experimental part: as §1
Series [5] deals with epidermal growth factor receptor (EGFR) (Homo sapiens, UniProt P00533). Nature of the series: EGFR kinase inhibition, solid-phase ELISA assay. (In general: ELISA stands for enzyme-linked immunosorbent assay.)
epidermal growth factor receptor (EGFR), sequence (P00533 25-1210): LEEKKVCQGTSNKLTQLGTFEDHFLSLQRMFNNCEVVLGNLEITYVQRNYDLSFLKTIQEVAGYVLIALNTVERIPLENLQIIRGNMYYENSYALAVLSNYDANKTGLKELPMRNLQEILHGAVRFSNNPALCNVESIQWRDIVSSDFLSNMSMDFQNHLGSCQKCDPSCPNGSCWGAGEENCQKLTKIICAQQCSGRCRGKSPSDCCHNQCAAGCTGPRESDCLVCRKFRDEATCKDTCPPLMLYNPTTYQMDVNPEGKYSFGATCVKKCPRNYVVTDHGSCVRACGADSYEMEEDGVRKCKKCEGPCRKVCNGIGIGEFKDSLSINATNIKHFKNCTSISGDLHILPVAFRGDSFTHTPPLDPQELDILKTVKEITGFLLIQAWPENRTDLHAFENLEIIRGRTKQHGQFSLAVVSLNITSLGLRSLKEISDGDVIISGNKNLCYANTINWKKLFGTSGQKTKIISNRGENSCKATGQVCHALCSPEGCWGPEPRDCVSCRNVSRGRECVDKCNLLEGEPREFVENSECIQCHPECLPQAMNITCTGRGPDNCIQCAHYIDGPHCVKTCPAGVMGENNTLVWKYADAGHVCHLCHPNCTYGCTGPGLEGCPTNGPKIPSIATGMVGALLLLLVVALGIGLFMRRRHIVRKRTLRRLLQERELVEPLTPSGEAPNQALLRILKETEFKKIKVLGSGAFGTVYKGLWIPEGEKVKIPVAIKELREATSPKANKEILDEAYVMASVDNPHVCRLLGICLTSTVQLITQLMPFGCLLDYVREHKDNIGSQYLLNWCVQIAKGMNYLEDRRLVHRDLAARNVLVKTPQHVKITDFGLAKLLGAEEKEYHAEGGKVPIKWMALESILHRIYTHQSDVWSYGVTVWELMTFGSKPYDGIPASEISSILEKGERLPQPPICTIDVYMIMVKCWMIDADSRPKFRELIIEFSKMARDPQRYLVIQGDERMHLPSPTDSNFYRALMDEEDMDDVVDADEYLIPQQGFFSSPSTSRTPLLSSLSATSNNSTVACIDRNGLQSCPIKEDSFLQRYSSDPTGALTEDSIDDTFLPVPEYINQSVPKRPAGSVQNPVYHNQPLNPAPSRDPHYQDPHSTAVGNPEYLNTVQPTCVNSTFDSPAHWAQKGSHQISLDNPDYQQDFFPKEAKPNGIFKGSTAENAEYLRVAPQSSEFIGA
Description: All these newly synthesized compounds were evaluated for their inhibitory activities against EGFR kinases using a solid-phase ELISA assay.
EGFR tyrosine kinase activity was determined by an enzyme linked-immunosorbent assay (ELISA) in 96-well plates precoated in a 10 mL reaction volume including 4 mL diluted test compounds, 4 mL substrate and 2 mL ATP. […] The plates were then aspirated and washed twice with 200 mL 0.9% (w/v) NaCl, and incorporation of Pi was determined with an LX300 Epson Diagnostic microplate reader. […] The experiments were replicated at least three times to verify the methodology reproducibility when using the above-mentioned conditions.
In series [6] the test system is 293T human kidney epithelial cells. Nature of the series: Cytotoxicity test (MTT) on 293T cells. The following applies: read-out: median cytotoxic concentration CC50; 293T cells, MTT assay, 24 h. The procedure: (§2) The cytotoxic activity in vitro was measured by the colorimetric MTT assay. […] For the cytotoxicity assay, 20 μL of MTT (5 mg/mL) was added per well 4 h before the end of the incubation. After removing the supernatant, 200 μL DMSO was added to dissolve the formazan crystals. The absorbance at λ 570 nm was read on an LX300 Epson Diagnostic microplate reader, untreated cells were used as negative controls.

In series [7] the test system is HeLa cells. Nature of the series: Cell apoptosis assay by flow cytometry (Annexin V-FITC/PI). It is filed as cell-based, human. The conditions noted are these: 24 h. As for the experimental part: To verify whether the inhibition of cell growth of HeLa cell lines was related to cell apoptosis, we decided to use flow cytometry with an Annexin V-FITC/PI Apoptosis Detection Kit to […] the HeLa cell apoptosis with compound H20.
For Annexin V/PI assays, HeLa cells were stained with Annexin VFITC and PI and then monitored for apoptosis by flow cytometry. Briefly, 5 × 10^3 cells were seeded in 6-well plates for 24 h and then were treated with H20 (2.0, 4.0, 6.0, 8.0 μM) for 24 h. Then, cells were collected and washed twice with PBS and stained with 5 μL Annexin V-FITC and 5 μL PI (5 μg/mL) in 1× binding buffer (10 mM HEPES, pH 7.4, 140 mM […], 2.5 mM CaCl2) for 15 min at room temperature in the dark. Apoptotic cells were quantified using a BD Accuri C6 Flow Cytometer (Becton, Dickinson and Company, Clifton, NJ, USA). Statistical analysis was done using Flowjo 7.6.1 software. Both early apoptotic (AnnexinV-positive, PI-negative) and late apoptotic (double positive of Annexin V and PI) cells were detected.

Series [8] can be described thus: Cytotoxicity test (MTT) on 293T cells. The following applies: human, 293T human kidney epithelial cells. As for the experimental part:
as §2

Series [9] concerns EGFR. The conditions noted are these: read-out: EGFR inhibitory activity IC50, cited from earlier work.
Where [10] appears, read: read-out: In vitro antiproliferative activity IC50, MCF-7.
The mark [11] stands for this setting: read-out: Inhibition activity IC50 against EGFR, solid-phase ELISA assay.

Where two headings read alike, the source gives them in different places.

Usually IC50 stands for the concentration that inhibits the measured activity by half. One may read the melting point as the temperature of the solid-liquid transition.

With `COc1cccc(/C=N/NC(=O)c2ccc(N3N=C(c4ccc(C)cc4)CC3c3ccc4ccccc4c3)cc2)c1` (stereo not shown) [Compound H4, (E)-N′-(3-Methoxybenzylidene)-4-(5-(naphthalen-2-yl)-3-(p-tolyl)-4,5-dihydro-1H-pyrazol-1-yl)benzo-hydrazide], the IC50 was determined as 430 nM in series [1]; 690 nM in [2] (setting [10]); 450 nM in [3]; 510 nM in series [4]; 230 nM in series [5] (setting [11]). Besides, the CC50 in series [6] came to 98800 nM.

For the molecule `COc1ccc(/C=N/NC(=O)c2ccc(N3N=C(c4ccccc4)CC3c3ccc4ccccc4c3)cc2)cc1` (stereo not shown) [Compound H17, (E)-N′-(4-Methoxybenzylidene)-4-(5-(naphthalen-2-yl)-3-phenyl-4,5-dihydro-1H-pyrazol-1-yl)benzo-hydrazide], the IC50 stood at 13300 nM in [1]; 18400 nM in [2] (setting [10]); 20700 nM in [3]; 26700 nM in series [4]; 7890 nM in series [5] (setting [11]). The CC50 in series [6] is 94200 nM.

As to `COc1ccc(/C=N/NC(=O)c2ccc(N3N=C(c4ccccc4C)CC3c3ccc4ccccc4c3)cc2)cc1` (stereo not shown) [Compound H18, (E)-N′-(4-Methoxybenzylidene)-4-(5-(naphthalen-2-yl)-3-(o-tolyl)-4,5-dihydro-1H-pyrazol-1-yl)benzo-hydrazide], the IC50 was determined as 1220 nM in [1]; 1630 nM in [2] (setting [10]); 780 nM in series [3]; 560 nM in series [4]; 480 nM in series [5] (setting [11]). In addition, the CC50 in series [6] was 90600 nM.

On to `COc1ccc(/C=N/NC(=O)c2ccc(N3N=C(c4cccc(C)c4)CC3c3ccc4ccccc4c3)cc2)cc1` (stereo not shown) [Compound H19, (E)-N′-(4-Methoxybenzylidene)-4-(5-(naphthalen-2-yl)-3-(m-tolyl)-4,5-dihydro-1H-pyrazol-1-yl)benzo-hydrazide], for which the half-maximal inhibitory concentration (IC50) in series [1] amounted to 2240 nM; in series [2] (setting [10]) it was 2450 nM; in series [3], 1190 nM; in series [4], 3260 nM; in series [5] (setting [11]) it was 1250 nM. Besides, in [6], the CC50 is 92600 nM.

`COc1ccc(/C=N/NC(=O)c2ccc(N3N=C(c4ccc(C)cc4)CC3c3ccc4ccccc4c3)cc2)cc1` (stereo not shown) [Compound H20, (E)-N′-(4-Methoxybenzylidene)-4-(5-(naphthalen-2-yl)-3-(p-tolyl)-4,5-dihydro-1H-pyrazol-1-yl)benzo-hydrazide]: the melting point lay within 241 to 243 °C. Besides, the IC50 in series [1] (Homo sapiens) is 460 nM. Further, the IC50 in series [2] (Homo sapiens, MCF7, read-out: In vitro antiproliferative activity IC50, MCF-7) stood at 290 nM. The IC50 in [3] (Homo sapiens) is 150 nM. The 50% inhibitory concentration (IC50) in [4] (Homo sapiens) stood at 210 nM. For the same molecule, the “percentage of cell apoptosis” value in series [7] (2.0 μM) came out at 28.7%. In addition, in series [7] (4.0 μM), the “percentage of cell apoptosis” value is recorded as 34.9%. In addition, in [7] (6.0 μM), the “percentage of cell apoptosis” value is given as 47.2%. The “percentage of cell apoptosis” value in series [7] (8.0 μM) turned out to be 58.12%. The molecule further returned an IC50 in series [5] of 80 nM. This molecule yielded a CC50 at 24 h in series [8] of 89900 nM.

On to `Cc1ccc(C2=NN(C3=NC(=O)CS3)C(c3ccc4ccccc4c3)C2)cc1C` (stereo not shown) [Compound e], for which the 50% inhibitory concentration (IC50) in series [9] (reported compound of Figure 1) was 120 nM.

For `COc1ccc(C2CC(c3ccc(C)c(C)c3)=NN2C(N)=S)cc1` (stereo not shown) [a], in [9] (reported compounds of Figure 1), the IC50 is 70 nM.

For `Cc1ccc(C2=NN(C3=NC(=O)CS3)C(c3ccc(Br)cc3)C2)cc1` (stereo not shown) [b], in series [9] (reported compounds of Figure 1), the half-inhibitory concentration (IC50) is 240 nM.

`Cc1ccc(C2=NN(c3ncc(-c4ccc(Cl)cc4)s3)C(c3ccc(F)cc3)C2)cc1C` (stereo not shown) [c]: the IC50 in series [9] (reported compounds of Figure 1) was 60 nM.

In the case of `CC(=O)N1N=C(c2ccc(C(F)(F)F)cc2)CC1c1ccc(C(=O)OCC(C)n2c([N+](=O)[O-])cnc2C)cc1` (stereo not shown) [d], the concentration for half-maximal inhibition (IC50) in series [9] (reported compounds of Figure 1) was 260 nM.

Values taken from PMC6273578, “Design, Synthesis and Biological Evaluation of Benzohydrazide Derivatives Containing Dihydropyrazoles as Potential EGFR Kinase Inhibitors” (Molecules, 2016).
